From publication PMC11473416, “Coumarin-chalcone derivatives as dual NLRP1 and NLRP3 inflammasome inhibitors targeting oxidative stress and inflammation in neurotoxin-induced HMC3 and BE(2)-M17 cell models of Parkinson's disease” (Frontiers in Aging Neuroscience, 2024) come the findings set out here.

Bounds are passed on as bounds.

Data set [1] is described as follows: cytotoxicity MTT assay in BE(2)-M17 cells. The data set is classed as cell-based, human. To be noted: human, MTT, 1–100 μM, 24 h. The procedure: Human HMC3 microglial (CRL-3304) and neuroblastoma BE(2)-M17 (CRL-2267) cells were obtained from American Type Culture Collection. BE(2)-M17 develops a better dopaminergic phenotype than SH-SY5Y when treated with retinoic acid to direct neuronal differentiation (Carvajal-Oliveros et al., [2022]). Cells were routinely maintained in Dulbecco's Modified Eagle Medium-Nutrient Mixture F12 (DMEM-F12) supplemented with 10% fetal bovine serum (FBS; Thermo Fisher Scientific, Waltham, MA, USA) in a 37°C incubator, with 95% relative humidity and 5% CO2 (NuAire, Plymouth, MN, USA).
To evaluate cytotoxicity of LM compounds and MPP^+, HMC3 (1 × 10^4) or BE(2)-M17 (2 × 10^4) cells were plated on 96-well dishes, grown for 20 h, and treated with LM compounds (1–100 μM) or MPP^+ [HMC3: 0–8 mM; BE(2)-M17: 0–5 mM]. Next day, 20 μl of tetrazolium dye 3-(4,5-dimethylthiazol-2-yl)-2,5-diphenyltetrazolium bromide (MTT, 5 mg/ml; Sigma-Aldrich) was added to the cells at 37°C for 3 h. The resulted insoluble purple formazan products were dissolved by lysis buffer (composition: 10% Triton X-100, 0.1 N HCl, 18% isopropanol). The absorbance of the dissolved product at optical density (OD) 570 nm was read by using a FLx800 fluorescence microplate spectrophotometer (Bio-Tek, Winooski, VT, USA). The half maximal inhibitory concentration (IC50) of LM compounds was determined through the construction of a dose-response curve. MPP^+ at 4 mM (HMC3 cell viability: 65%−69%) or 0.62 mM [BE(2)-M17 cell viability: 79%−84%] was selected to induce inflammation for further experiments.
(Tetrazolium dyes change colour on reduction, which living cells bring about.)

Data set [2] can be described thus: oxygen radical antioxidant capacity (OxiSelect kit). To be noted: at 4–100 μM concentration. Here is the method:
The test of oxygen radical antioxidant capacity (Ou et al., [2001]) was performed using OxiSelect™ kit (Cell Biolabs, San Diego, CA, USA). Briefly, trolox standards (2.5–50 μM) and LM compounds (4–100 μM) were prepared using a serial dilution in a mixture containing 50% acetone and 50% water. After adding fluorescein to blank (50% acetone/50% water), standards, or samples, the mixture was mixed and incubated at 37°C for 30 min. Subsequently, free radical initiator 2,2′-azobis(2-methylpropionamidine) dihydrochloride (AAPH) was added to generate peroxyl radicals (ROO•). The quenching of fluorescent probe over time was recorded at 480 nm excitation and 520 nm emission for 60 min (Bio-Tek FLx800). To quantify the oxygen radical absorbance capacity, the area under the curve (AUC) for blank, standard and samples were calculated. After subtraction of the blank, trolox equivalent (μM) of samples were determined using a calibration curve with trolox standards.

Data set [3] relates to tyrosine hydroxylase (TH). The data set can be described thus: tyrosine hydroxylase immunofluorescence staining in MPP^+-treated BE(2)-M17 cells. The data set is classed as cell-based, human. To be noted: for TH expression (immunofluorescence): BE(2)-M17, compound 10 μM + 0.62 mM MPP^+, MPP^+ alone 107%, untreated = 100%. Here is the method:
BE(2)-M17 cells were seeded in 24-well plate (5 × 10^4/well) and treated with retinoic acid, LM compounds (10 μM), and MPP^+ as described. On day 7, cells were fixed (4% PFA), permeabilized (0.1% Triton X-100), blocked (2% BSA), and stained with primary tyrosine hydroxylase (TH; a marker for dopamine-containing neurons; Haavik and Toska, [1998]) antibody (#sc-374047; 1:500; Santa Cruz Biotechnology, Santa Cruz, CA, USA) at 4°C overnight, followed by Alexa Fluor 488-donkey anti-mouse IgG secondary antibody (#A-21202; 1:1,000; Thermo Fisher Scientific) at room temperature for 2 h. Nuclei were detected using DAPI (0.1 μg/ml). Dopaminergic differentiation was examined by fluorescence imaging of Alexa Fluor 488 as described.

Data set [4] relates to BE(2)-M17 cells. The data set can be described thus: high-content analysis of neurite outgrowth in MPP^+-treated BE(2)-M17 cells. The format is cell-based, human. To be noted: for neurite length: MPP^+ alone 24.2 μm. Here is the method:
For automated neuronal morphology analysis, BE(2)-M17 cells were seeded in 24-well plate (5 × 10^4/well) and treated with retinoic acid, LM compounds (10 μM), and MPP^+ as described. On day 7, after being fixed and permeated, cells were stained with TUBB3 (neuronal class III β-tubulin) antibody (#802001; 1:1,000; BioLegend, San Diago, CA, USA) at 4°C overnight, followed by Alexa Fluor 555-donkey anti-rabbit (#A-31572) antibody (1:1,000; Thermo Fisher Scientific) at room temperature for 2 h. TUBB3 is a β-tubulin isoform constitutively expressed in neurons and important for maintaining further neurite elongation (Ferreira and Caceres, [1992]). After nuclei staining with DAPI, neuronal images were captured at 531 nm excitation and 593 nm emission wavelengths (ImageXpress Micro Confocal; Molecular Devices). Microscopic images were segmented with multi-colored mask to assign each outgrowth to a cell body for quantification of neurite outgrowth. Neurite total length (μm) and numbers of primary neurites originated from neuronal cell body (process) and secondary neurites extended from primary neurites (branch) were analyzed (Neurite Outgrowth Application Module; Molecular Devices). For each sample, around 3,000 cells were analyzed in each of three independent experiments.

Setting [5] is: BE(2)-M17, compound 10 μM + 0.62 mM MPP^+, MPP^+ alone 2.6.
[6] abbreviates: BE(2)-M17, compound 10 μM + 0.62 mM MPP^+.

A word on the IC50: it is the concentration that gives 50% inhibition. Read a high IC50 as weaker potency. In turn, `Cc1ccc(/C=C/C(=O)c2c(O)c3ccccc3oc2=O)cc1` [LM-016] had an IC50 at 24 h in data set [1] (BE(2)-M17 neuroblastoma cells) of over 100 µM. The “oxygen radical antioxidant capacity, trolox equivalent” value (from here on “oxygen radical antioxidant capacity”) in data set [2] lay in the range of 0 to 10 µM.
As to `CN(C)c1ccc(/C=C/C(=O)c2c(O)c3ccccc3oc2=O)cc1` [LM-021, (E)-3-(3-(4-(dimethylamino)phenyl)acryloyl)-4-hydroxy-2H-chromen-2-one], in data set [3], the “TH expression (immunofluorescence)” value turned out to be 165%. In data set [4] (setting [5]), the number of process was 2.8–3.0. The neurite length in data set [4] (setting [6]) is listed as 26.2–27.2 μm. In data set [1], this compound had a concentration for half-maximal inhibition (IC50) of over 100 µM. Besides, in data set [2], the “oxygen radical antioxidant capacity” value lay within 2 to 36 µM.
`O=C(/C=C/c1ccccc1O)c1c(O)c2ccccc2oc1=O` [LM-036]: the “TH expression (immunofluorescence)” value in data set [3] worked out at 128%. For the same compound, the number of process in data set [4] (setting [5]) is reported as 2.8–3.0. Moreover, the neurite length in data set [4] (setting [6]) is 26.2–27.2 μm. The same compound had an IC50 in data set [1] of over 100 µM. For the same compound, the “oxygen radical antioxidant capacity” value in data set [2] was in the range of 15 to 40 µM.
Compound `C[n+]1ccc(-c2ccccc2)cc1` [MPP^+, 1-methyl-4-phenyl pyridinium, reference compound] showed a TH immunofluorescence in data set [3] (BE(2)-M17, 0.62 mM MPP^+ alone, 40 h, untreated control = 100%) of 107%. The number of branch in data set [4] (BE(2)-M17, 0.62 mM MPP^+ alone, untreated 1.2, not significant) amounted to 1.1. The same compound came in with a number of process in data set [4] (BE(2)-M17, 0.62 mM MPP^+ alone, untreated 2.9) of 2.6. Further, the “total length of neurite” value in data set [4] (BE(2)-M17, 0.62 mM MPP^+ alone, untreated 26.0 μm) came out at 24.2 μm.
